BindingDB's records for doi:10.1021/jm8001026 (University of Texas At Dallas, 2008)

Target: T1, Dihydroorotate dehydrogenase (quinone), mitochondrial (Plasmodium falciparum (isolate 3D7), UniProt Q08210)
T1 sequence (Q08210 whole entry): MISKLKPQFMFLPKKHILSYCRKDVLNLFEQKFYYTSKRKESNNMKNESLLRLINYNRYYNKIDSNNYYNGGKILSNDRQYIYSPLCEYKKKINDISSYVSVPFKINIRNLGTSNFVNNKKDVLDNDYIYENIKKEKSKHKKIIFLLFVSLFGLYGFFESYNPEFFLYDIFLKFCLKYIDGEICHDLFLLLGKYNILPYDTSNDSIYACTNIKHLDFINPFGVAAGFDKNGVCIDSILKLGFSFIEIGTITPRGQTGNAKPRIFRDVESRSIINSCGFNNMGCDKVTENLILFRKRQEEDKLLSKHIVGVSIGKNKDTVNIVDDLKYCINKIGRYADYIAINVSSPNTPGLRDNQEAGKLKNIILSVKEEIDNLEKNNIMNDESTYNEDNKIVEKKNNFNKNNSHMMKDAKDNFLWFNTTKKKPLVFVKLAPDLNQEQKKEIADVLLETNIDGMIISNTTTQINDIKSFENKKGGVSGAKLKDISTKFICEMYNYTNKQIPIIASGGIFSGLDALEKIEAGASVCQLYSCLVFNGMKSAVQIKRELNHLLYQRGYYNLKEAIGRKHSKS
Experiment: DHODH Inhibition Assay
Details: pH 8; 20 °C
Description: The assays were carried out by using a colorimetric DCIP method, which uses the colorimetric reagent 2, 6-dichlorophenolindophenol as the final electron acceptor. DCIP reduction is stoichiometrically equivalent to oxidation of dihydroorotate. Changes in absorbance were quantified on a plate reader and data were analyzed to measure the reduction of DCIP as a decrease in absorbance at 600 nm.

With Cc1cc(Nc2ccc(C(N)=O)cc2)n2ncnc2n1 [4-({5-methyl-[1,2,4]triazolo[1,5-a]pyrimidin-7-yl}amino)benzamide] the IC50 was greater than 200 µM.
Molecule Cc1cc(Nc2ccccc2)n2ncnc2n1 [JMC521864 Compund DSM12] has an IC50 greater than 100 µM.
